In US9187480B2, “Peripherally restricted diphenyl purine derivatives” (RESEARCH TRIANGLE INSTITUTE, priority 2012, dated 2015):

Tests used:
CB1 [1] = target: T1, CB1 (Homo sapiens (Human), UniProt P21554); experiment: Radioligand displacement of [3H]SR141716 at CB1; assay type: binding; conditions: radioligand [3H]SR141716; read-out: Ki (nM) v. [3H]SR141716 at CB1
CB1 [2] = target: T1, CB1; experiment: Displacement of [3H]CP55940 in membranes of CHO-K1 cells over-expressing CB1;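 for all read-outs here: reported values are averages of 3-6 independent measurements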; conditions: for Binding Selectivity using CP55940 Displacement: CB1 versus CB2; for Ki: read-out: Ki (nM) v. [3H]CP55940 at CB1, radioligand [3H]CP55940, CHO-K1 membranes
Method: Further characterization of select compounds was performed using radioligand displacement of [3H]1 and equilibrium dissociation constant (Ki) values were determined. Selectivity of these compounds at CB1 versus CB2 was also determined by obtaining Ki values at either receptor using displacement of [3H]CP55940 in membranes of CHO-K1 cells over-expressing either receptor. Data reported are average values from 3-6 measurements.
Selectivity against the CB2 receptor was determined by comparing the compound displacement of radiolabeled CP55940, which is a cannabinoid known to act as a full agonist at both CB1 and CB2 receptors.

CB2 = CB2 (Homo sapiens (Human), UniProt P34972); experiment: Displacement of [3H]CP55940 in membranes of CHO-K1 cells over-expressing CB2; assay type: binding; conditions: radioligand [3H]CP55940, CHO-K1 membranes; read-out: Ki (nM) v. [3H]CP55940 at CB2
Chain of CB2 (P34972 whole entry): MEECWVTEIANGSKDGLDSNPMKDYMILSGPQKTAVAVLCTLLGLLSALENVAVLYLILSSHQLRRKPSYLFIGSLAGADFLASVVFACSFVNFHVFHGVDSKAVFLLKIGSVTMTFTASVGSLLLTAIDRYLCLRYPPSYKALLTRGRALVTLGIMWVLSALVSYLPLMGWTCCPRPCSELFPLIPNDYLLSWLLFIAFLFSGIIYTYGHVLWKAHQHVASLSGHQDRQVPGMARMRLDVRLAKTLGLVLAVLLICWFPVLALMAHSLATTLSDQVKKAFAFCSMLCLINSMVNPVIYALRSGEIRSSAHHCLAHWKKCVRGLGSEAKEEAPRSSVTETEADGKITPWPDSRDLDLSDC

CB1 [3] = target: T1, CB1; experiment: CB1 activated Gαq16-coupled intracellular calcium mobilization assay in CHO-K1 cells; assay type: cell-based; conditions: apparent affinity (Ke)
[4] = Brain penetration / plasma and brain levels after oral dosing in SD rats; assay type: in vivo, Sprague-Dawley (SD) rats; conditions: Sprague-Dawley, rat, oral 10 mg/kg
Method: However, unlike otenabant, this sulfonamide is a peripherally selective compound. […] Select compounds were chosen for study to determine penetration into the CNS. Selected compounds were dosed orally at 10 mg/kg in SD rats. Brain and plasma samples were collected at 1, 2, 4, and 24 hours post dose and samples were analyzed by MS (Table 2, below). Since unperfused brains were used and the blood volume in unperfused brains is approximately 4%, a brain to plasma level of ≦0.04 represents no discernible penetration into the CNS.

MDCK-MDR = MDCK-MDR transport (apical to basal); assay type: in vitro ADME

T1 sequence (P21554 whole entry): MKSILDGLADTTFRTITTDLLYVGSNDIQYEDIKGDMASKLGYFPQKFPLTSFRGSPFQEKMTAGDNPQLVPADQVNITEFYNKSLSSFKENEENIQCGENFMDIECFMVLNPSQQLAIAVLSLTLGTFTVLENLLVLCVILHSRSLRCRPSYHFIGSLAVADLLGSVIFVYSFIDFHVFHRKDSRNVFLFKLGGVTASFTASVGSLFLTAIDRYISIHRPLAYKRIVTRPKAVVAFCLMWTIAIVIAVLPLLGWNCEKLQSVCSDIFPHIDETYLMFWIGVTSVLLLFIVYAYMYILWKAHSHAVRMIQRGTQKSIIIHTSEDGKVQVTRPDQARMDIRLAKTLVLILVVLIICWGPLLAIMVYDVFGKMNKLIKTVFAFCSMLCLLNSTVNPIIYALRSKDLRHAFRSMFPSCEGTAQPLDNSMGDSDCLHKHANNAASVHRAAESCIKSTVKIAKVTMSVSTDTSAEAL

**Q.** Which Ki (CB1 [1]) does the source give for `O=S1(=O)CCN(c2ncnc3c2nc(-c2ccccc2Cl)n3-c2ccc(Cl)cc2)CC1` [4-[8-(2-Chlorophenyl)-9-(4-chlorophenyl)-9H-purin-6-yl]-1λ^6,4-thiomorpholine-1,1-dione] here?
**A.** 16.8 nM

**Q.** What about the “Binding Selectivity using CP55940 Displacement” value (from here on “Binding Selectivity”) (CB1 [2]) of the same compound?
**A.** 26.0

**Q.** And the Ki (CB1 [2])?
**A.** 32.1 nM

**Q.** What about the Ki (CB2) of the same compound?
**A.** 834 nM

**Q.** What about the “Ke (nM) at CB1” value (CB1 [3]) of the same compound?
**A.** 159.00 nM

**Q.** For `CS(=O)(=O)NC1(c2ccccc2)CCN(c2ncnc3c2nc(-c2ccccc2Cl)n3-c2ccc(Cl)cc2)CC1` [N-{1-[8-(2-Chlorophenyl)-9-(4-chlorophenyl)-9H-purin-6-yl]-4-phenylpiperidin-4-yl}methanesulfonamide], which Kp ([4]; brain and plasma, range over sampling times, read-out: brain to plasma ratios) is on record?
**A.** 0.05 to 0.11

**Q.** And the Cmax ([4]; in vivo)?
**A.** 1650 ng/g

**Q.** What about the “Binding Selectivity” value (CB1 [2]) of the same compound?
**A.** 153

**Q.** What about the Ki (CB1 [2]) of the same compound?
**A.** 6.21 nM

**Q.** What about the Ki (CB2) of the same compound?
**A.** 948 nM

**Q.** And the “% MDCK-MDR transport (Apical to Basal)” value (MDCK-MDR)?
**A.** <1%

**Q.** Which Ki (CB1 [1]) does the source give for `NC(=O)C1(c2ccccc2)CCN(c2ncnc3c2nc(-c2ccccc2Cl)n3-c2ccc(Cl)cc2)CC1` here?
**A.** 0.28 nM

**Q.** And the “Binding Selectivity” value (CB1 [2])?
**A.** 3076.5

**Q.** What about the Ki (CB1 [2]) of the same compound?
**A.** 1.79 nM

**Q.** And the Ki (CB2)?
**A.** 5510 nM

**Q.** What about the “Ke (nM) at CB1” value (CB1 [3]) of the same compound?
**A.** 9 nM

**Q.** What about the “% MDCK-MDR transport (Apical to Basal)” value (MDCK-MDR) of the same compound?
**A.** 5.6 ± 2.4%

**Q.** For `CS(=O)(=O)NCC1CCC(CNc2ncnc3c2nc(-c2ccccc2Cl)n3-c2ccc(Cl)cc2)CC1` (stereo not shown), which Ki (CB1 [1]) is on record?
**A.** 44.5 nM

**Q.** And the “Binding Selectivity” value (CB1 [2])?
**A.** 8.6

**Q.** What about the Ki (CB1 [2]) of the same compound?
**A.** 258 nM

**Q.** What about the Ki (CB2) of the same compound?
**A.** 2230 nM

**Q.** What about the “Ke (nM) at CB1” value (CB1 [3]) of the same compound?
**A.** 201.00 nM

**Q.** What about the “% MDCK-MDR transport (Apical to Basal)” value (MDCK-MDR) of the same compound?
**A.** >50%

**Q.** With `NS(=O)(=O)NCC1CCC(CNc2ncnc3c2nc(-c2ccccc2Cl)n3-c2ccc(Cl)cc2)CC1` (stereo not shown) as the compound, how does the Ki (CB1 [1]) read?
**A.** 94.5 nM

**Q.** And the “Binding Selectivity” value (CB1 [2])?
**A.** 30.2

**Q.** And the Ki (CB1 [2])?
**A.** 355 nM

**Q.** What about the Ki (CB2) of the same compound?
**A.** 10700 nM

**Q.** What about the “Ke (nM) at CB1” value (CB1 [3]) of the same compound?
**A.** 549.0 nM
